From patent US7928096B2, “Polydiazeniumdiolated cyclic polyamines with polyphasic nitric oxide release and related compounds, compositions comprising same and methods of using same” (The United States of America, as represented by the …, priority 2002, dated 2011)
Like-named read-outs stand apart in the source and are kept apart here.

Experiments:
[1] = NO release rate by UV spectrophotometry (decrease in 250-252 nm absorbance); format: physicochemical; conditions: phosphate buffer, pH 7.4, pH 7.4 phosphate buffer (0.1 M), 37° C., 50 to 100 μM
Source text: The invention provides a cyclic polyamine compound comprising at least three amino groups, wherein at least two of the amino groups are covalently bound to a nitrogen oxide-releasing group of the formula N2O2M, in which M is a pharmaceutically acceptable cation. The invention also provides a compound that has a polyphasic release of nitric oxide, wherein any subsequent release of nitric oxide has a rate that is at least about 3 times smaller than an initial rate of nitric oxide release. The rate of NO release can be determined by any suitable method. For example, the rate of NO release can be measured by the decrease in 250-252 nm absorbance over time at 37° C. as previously described by Keefer et al., “NONOates” (1-Substituted Diazen-1-ium-1,2-diolates) as Nitric Oxide Donors: Convenient Nitric Oxide Dosage Forms. Methods in Enzymology, 1996, 268, 281-293.
(§1) The total moles of NO released were determined by chemiluminescence as previously described in Hrabie et al. (New Nitric Oxide Releasing Zwitterions Derived from Polyamines. J. Org. Chem., 1993, 58, 1472-1476). The NO release rates for the compounds prepared in Example 1 and Example 2 were determined by UV spectrophotometry by adding a stock solution of the compound in 0.01 M NaOH to pH 7.4 phosphate buffer (0.1 M) contained in a standard UV cell to generate final solutions at concentrations in the range of 50 to 100 μM. The rate of NO release was determined by the decrease in 250-252 nm absorbance over time at 37° C. as previously described by Keefer et al. (“NONOates” (1-Substituted Diazen-1-ium-1,2-diolates) as Nitric Oxide Donors: Convenient Nitric Oxide Dosage Forms. Methods in Enzymology, 1996, 268, 281-293). The results of the NO release of piperazine bisdiazeniumdiolate as discussed in Hrabie et al. (Organic Preparations and Procedures International, 1999, 31(2), 189-192) are included as a comparative example.

[2] = Total moles of NO released by chemiluminescence; format: physicochemical; conditions: for Moles of NO released: chemiluminescence; for Ideal moles of NO released: theoretical (ideal) amount
Experimental: as §1

[3] = NO release monitored by chemiluminescence of effluent gas stream treated with ozone; conditions: pH 7.4 phosphate buffer at 37° C.
Experimental: The diazeniumdiolated compound described in Example 4 was dissolved in pH 7.4 phosphate buffer at 37° C., and the release of NO was monitored by detection of the chemiluminescence generated by treatment of the effluent gas steam with ozone.
The diazeniumdiolated compound described in Example 5 was dissolved in pH 7.4 phosphate buffer at 37° C., and the release of NO was monitored by detection of the chemiluminescence generated by treatment of the effluent gas steam with ozone.
The diazeniumdiolated compound described in Example 6 was dissolved in pH 7.4 phosphate buffer at 37° C., and the release of NO was monitored by detection of the chemiluminescence generated by treatment of the effluent gas steam with ozone.
The diazeniumdiolated compound described in Example 7 was dissolved in pH 7.4 phosphate buffer at 37° C., and the release of NO was monitored by detection of the chemiluminescence generated by treatment of the effluent gas steam with ozone.
The diazeniumdiolated compound described in Example 9 was dissolved in pH 7.4 phosphate buffer at 37° C., and the release of NO was monitored by detection of the chemiluminescence generated by treatment of the effluent gas steam with ozone.

[4] = comparative example from Hrabie et al. 1999; cited from earlier work
[5] = read-out: t1/2 of initial phase
[6] = read-out: t1/2 of second phase (converted)

Molecule	half-life [1, 5]	half-life [1, 6]	melting point	Moles of NO released [2]	Ideal moles of NO released [2]	biphasic release of NO, first rate of release [3]	biphasic release of NO, second rate of release [3]	Moles of NO released [4]
[Na+].[Na+].[O-]/N=[N+](\[O-])N1CCCN(/[N+]([O-])=N/[O-])CCNCCCNCC1 [Example 1, 1,4,8,11-tetraazacyclotetradecane-1,11-bisdiazeniumdiolate]	0.0283 h	8.9 h	181 to 182 °C	3.3 mol	4 mol			
[Na+].[Na+].[O-]/N=[N+](\[O-])N1CCNCCNCCN(/[N+]([O-])=N/[O-])CC1 [Example 2, 1,4,7,10-tetraazacyclododecane-1,4-bisdiazeniumdiolate]	0.0283 h	8.8 h	183 to 185 °C (dec.)	3.3 mol	4 mol			
O=NN([O-])N1CCN2CCN(CCN(N([O-])N=O)CC1)C(=O)C2=O.[Na+].[Na+] [Example 6, 1,4-bis(diazeniumdiolated)-1,4,7,10-tetraazabicyclo[8.2.2]tetradecane-11,12-dione, disodium salt]						1.0 min	41.5 min	
CCOC(=O)N1CCN(/[N+]([O-])=N/[O-])CCN(C(=O)OCC)CCN(/[N+]([O-])=N/[O-])CC1.[Na+].[Na+] [Example 7, 1,7-diazeniumdiolated-4,10-bis(ethoxycarbonyl)-1,4,7,10-tetraazacyclododecane, disodium salt]						0.36 min	60.9 min	
O=C1C(=O)N2CCCN([N+]([O-])=N[O-])CCN([N+]([O-])=N[O-])CCCN1CC2.[Na+].[Na+] [Example 9, 1,4-bis(diazeniumdiolated)-1,5,8,12-tetraazabicyclo[10.2.2.]hexadecane-13,14-dione, disodium salt]						1.1 min	161 min	
piperazine bisdiazeniumdiolate [reference compound]					4 mol			4.3 mol
